Assay results from patent publication US10000474B2, “Histone deacetylase inhibitors and uses thereof” (MUSC FOUNDATION FOR RESEARCH DEVELOPMENT, priority 2014, dated 2018).
Structures can show the parent of a compound that is named as a salt.

Assays:
Recombinant human HDAC7 = target: T1, Recombinant human HDAC7 (Homo sapiens, UniProt Q8WUI4); test: HDAC inhibitory assay, HDAC7 (Boc-Lys(Tfa)-AMC substrate); format: biochemical; details: test concentration not given; average of triplicate
T1 construct: purchased Millipore
T1 sequence (Q8WUI4 1-952): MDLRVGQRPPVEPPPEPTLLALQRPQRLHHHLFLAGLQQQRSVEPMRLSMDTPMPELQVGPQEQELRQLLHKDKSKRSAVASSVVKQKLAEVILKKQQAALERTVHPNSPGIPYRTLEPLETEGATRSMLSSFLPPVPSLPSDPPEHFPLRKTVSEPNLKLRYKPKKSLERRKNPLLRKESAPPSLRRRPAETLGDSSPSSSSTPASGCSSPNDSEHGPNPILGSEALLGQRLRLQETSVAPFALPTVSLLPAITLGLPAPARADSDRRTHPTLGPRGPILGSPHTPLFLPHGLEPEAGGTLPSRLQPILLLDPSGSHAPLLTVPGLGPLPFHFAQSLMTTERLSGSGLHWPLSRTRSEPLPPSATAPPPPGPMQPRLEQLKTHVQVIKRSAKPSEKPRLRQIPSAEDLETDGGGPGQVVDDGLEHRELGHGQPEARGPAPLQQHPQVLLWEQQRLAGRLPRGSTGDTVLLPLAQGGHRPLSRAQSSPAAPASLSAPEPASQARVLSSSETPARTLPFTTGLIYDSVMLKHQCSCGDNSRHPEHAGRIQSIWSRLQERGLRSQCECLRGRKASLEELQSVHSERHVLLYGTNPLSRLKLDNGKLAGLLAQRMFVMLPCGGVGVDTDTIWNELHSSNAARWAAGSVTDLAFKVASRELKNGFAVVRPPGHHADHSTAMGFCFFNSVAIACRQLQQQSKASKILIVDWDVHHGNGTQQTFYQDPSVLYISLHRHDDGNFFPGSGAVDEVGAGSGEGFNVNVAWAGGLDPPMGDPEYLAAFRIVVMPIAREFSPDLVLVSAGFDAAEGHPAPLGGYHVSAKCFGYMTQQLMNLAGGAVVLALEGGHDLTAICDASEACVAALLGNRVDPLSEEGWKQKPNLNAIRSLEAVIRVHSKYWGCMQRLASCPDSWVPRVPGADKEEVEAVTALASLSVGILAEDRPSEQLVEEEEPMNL
Description: The compounds of Examples 1-12 and 14-16 were evaluated for their ability to act as inhibitors of human HDAC. The compound of Example 13 was not tested. Recombinant human HDAC1, HDAC2, HDAC3/NcoR2, HDAC5, HDAC6, HDAC8, HDAC9, HDAC10 and HDAC11 were purchased from BPS Biosciences. Recombinant human HDAC4 and HDAC7 were purchased from Millipore. The substrate Boc-Lys(Ac)-AMC and Boc-Lys(Tfa)-AMC were purchased from Bachem. The substrate Ac-RHK(Ac)K(Ac)-AMC was purchased from Enzo Life Sciences. Due to the different specific activities of each isoform, different amount of enzyme was used in each isoform screening assay. In these assays, trichostatin A (TSA), suberanilohydroxamic acid and diphenylacetohydroxamic acid (DPAHA) were employed as positive controls. All determinations were carried out in triplicate, and reported values were the average of these determinations, which in no case varied by more than 5%.
For evaluating the inhibition of class IIa HDACs (HDAC4, HDAC5, HDAC7 and HDAC9) and class IV HDAC (HDAC11), 10 μl of test samples were first incubated with 1 ng HDAC4 (specific activity=15400 pmol/min/μg), 5 ng HDAC5 (specific activity=2521 pmol/min/μg), 1 ng HDAC7 (specific activity=26340 pmol/min/μg), 5 ng HDAC9 (specific activity=3000 pmol/min/μg), and 500 ng HDAC11 (specific activity=1.8 pmol/min/μg) respectively. Then 25 μl of the Boc-Lys(Tfa)-AMC substrate (50 μM final concentration) was added and incubated at 37° C. for 30-60 min, and followed by adding 50 μl of developer. The last step was to read the samples in a SpectraMax M5 plate reader (Molecular Devices) at an excitation wavelength of 360 nm and an emission wavelength of 460 nm.

[1] = Cell proliferation assay (MTS, cytotoxicity); format: cell-based; details: human; cell line not given (MV4-11 24 hours or MCF-7 72 hours); 1 μM to 100 μM; average of triplicate
Description: The cytotoxicity of representative compounds of the invention was determined by MTS assay, following the protocol of CellTiter 96® AQueous Non-Radioactive Cell Proliferation Assay (Promega). The cells used in this assay were MV4-11 (human, macrophage, biphenotypic B myelomonocytic leukemia) and MCF-7 (human, epithelial, adenocarcinoma). […] The MV-4-11 cells were incubated with the representative compounds for 24 hours at 37° C. in 5% CO2 while the MCF-7 cells were first seeded on the 96-well plate and were allowed to attach for 1 day and then were incubated with different concentrations of the representative compound for 72 hours at 37° C. in 5% CO2. After 24 or 72 hours 20 μl of MTS reagent solution was added into each well and the cells were incubated for another 4 hours at 37° C. under 5% CO2 environment. The absorbance was measured at 490 nm in a SpectraMax M5 plate reader (Molecular Devices) to determine the cell viability. The absorbance was directly proportional to the amount of viable cells. All determinations were carried out in triplicate, and reported values in Table 2 below were the average of these determinations, which in no case varied by more than 5%.

Compound: O=C(NCCCCNC(=O)C(c1ccccc1)c1ccccc1)c1coc(-c2ccccc2O)n1 [Example 10, N-(4-(2,2-Diphenylacetamido)butyl)-2-(2-hydroxyphenyl)oxazole-4-carboxamide]
- HDAC 7 inhibitory activity (Recombinant human HDAC7): 2.2%

Compound: O=C(NCCCCNCCC(c1ccccc1)c1ccccc1)c1coc(-c2ccccc2O)n1 [Example 12, N-(4-((3,3-Diphenylpropyl)amino)butyl)-2-(2-hydroxyphenyl)oxazole-4-carboxamide hydrochloride]
- HDAC 7 inhibitory activity (Recombinant human HDAC7): 0%

Compound: O=C(CNC(=O)c1coc(-c2ccccc2O)n1)Nc1ccccc1 [Example 16, 2-(2-Hydroxyphenyl)-N-(2-oxo-2-(phenylamino)ethyl)oxazole-4-carboxamide]
- HDAC 7 inhibitory activity (Recombinant human HDAC7): 0%

Compound: O=C(NCCC(c1ccccc1)c1ccccc1)c1coc(-c2ccccc2O)n1 [Example 4, N-(3,3-Diphenylpropyl)-2-(2-hydroxyphenyl)oxazole-4-carboxamide]
- HDAC 7 inhibitory activity (Recombinant human HDAC7): 0.7%

Compound: O=C(NCCc1c[nH]c2ccccc12)c1coc(-c2ccccc2O)n1 [Example 8, N-(2-(1H-Indol-3-yl)ethyl)-2-(2-hydroxyphenyl)oxazole-4-carboxamide]
- HDAC 7 inhibitory activity (Recombinant human HDAC7): 3.8%

Compound: O=C(NCc1ccc(-c2ccccc2)cc1)c1coc(-c2ccccc2O)n1 [Example 6, N-([1,1′-Biphenyl]-4-ylmethyl)-2-(2-hydroxyphenyl)oxazole-4-carboxamide]
- HDAC 7 inhibitory activity (Recombinant human HDAC7): 1.4%
- IC50 [1]: > 100 µM
- melting point: 220 to 221 °C

Compound: O=C(NCCCCN1C(=O)c2ccccc2C1=O)c1coc(-c2ccccc2O)n1 [Example 9, N-(4-(1,3-Dioxoisoindolin-2-yl)butyl)-2-(2-hydroxyphenyl)oxazole-4-carboxamide]
- HDAC 7 inhibitory activity (Recombinant human HDAC7): 1.1%

Compound: O=C(O)c1ccc(CNC(=O)c2coc(-c3ccccc3O)n2)cc1 [Example 14, 4-((2-(2-Hydroxyphenyl)oxazole-4-carboxamido)methyl)benzoic acid]
- HDAC 7 inhibitory activity (Recombinant human HDAC7): 9.3%
- melting point: 248 to 251 °C

Compound: O=C(NCCCCNC(=S)NCCC(c1ccccc1)c1ccccc1)c1coc(-c2ccccc2O)n1 [Example 11, N-(4-(3-(3,3-Diphenylpropyl)thioureido)butyl)-2-(2-hydroxyphenyl)oxazole-4-carboxamide]
- HDAC 7 inhibitory activity (Recombinant human HDAC7): 21.9%

Compound: O=C(Nc1ccc(-c2ccccc2)cc1)c1coc(-c2ccccc2O)n1 [Example 5, N-([1,1′-Biphenyl]-4-yl)-2-(2-hydroxyphenyl)oxazole-4-carboxamide]
- HDAC 7 inhibitory activity (Recombinant human HDAC7): 19.4%
- melting point: 218 to 219 °C

Compound: O=C(Nc1ccccc1)c1coc(-c2ccccc2O)n1 [Example 1, 2-(2-Hydroxyphenyl)-N-phenyloxazole-4-carboxamide]
- HDAC 7 inhibitory activity (Recombinant human HDAC7): 1.3%
- IC50 [1]: 25 µM
- melting point: 173 to 174 °C

Compound: O=C(NC(c1ccccc1)c1ccccc1)c1coc(-c2ccccc2O)n1 [Example 2, N-Benzhydryl-2-(2-hydroxyphenyl)oxazole-4-carboxamide]
- HDAC 7 inhibitory activity (Recombinant human HDAC7): 9.2%
- IC50 [1]: 7.6 µM
- melting point: 226 to 227 °C

Compound: O=C(Nc1ccccc1)c1ccc(CNC(=O)c2coc(-c3ccccc3O)n2)cc1 [Example 15, 2-(2-Hydroxyphenyl)-N-(4-(phenylcarbamoyl)benzyl)oxazole-4-carboxamide]
- HDAC 7 inhibitory activity (Recombinant human HDAC7): 9.9%

Compound: O=C(NCc1cccc2ccccc12)c1coc(-c2ccccc2O)n1 [Example 7, 2-(2-Hydroxyphenyl)-N-(naphthalen-1-ylmethyl)oxazole-4-carboxamide]
- HDAC 7 inhibitory activity (Recombinant human HDAC7): 3.8%

Compound: O=C(NCC(c1ccccc1)c1ccccc1)c1coc(-c2ccccc2O)n1 [Example 3, N-(2,2-Diphenylethyl)-2-(2-hydroxyphenyl)oxazole-4-carboxamide]
- HDAC 7 inhibitory activity (Recombinant human HDAC7): 4.1%
- IC50 [1]: 40 µM
- melting point: 206 to 208 °C
